# Values quoted from earlier work as cited in US7977431B2, “Dithiocarbamic esters” (LANXESS Deutschland GmbH, priority 2002, dated 2011).
# Conditions: for pKa value e Z-H: pKa of the protonated substituent Z of the regulator, not of the regulator itself; for pKa value: parent form Z-H of substituent Z
pKa value e Z-H,pKa value,Compound
5.1,–,"CCN(C(=S)SC(C)C(=O)OC)c1ccccc1 (stereo not shown) [Regulator compound (4), Methyl 2-({[ethyl-(phenyl)amino]-carbonothioyl}-sulphanyl)-propanoate, reference compound]"
–,14.0,c1cn[nH]c1 [pyrazole]
–,16.6,O=C1CCCCN1 [2-piperidinone]
–,16.6,O=C1CCCCCN1 [2-azepanone]
17.0,–,"C/C(Cl)=C/CSC(=S)n1cccc1 [Regulator compound (1), 3-chloro-2-butenyl 1H-pyrrole-1-carbodithioate]"
–,16.6,O=C1CCCCCCN1 [2-azocanone]
14.5,–,"C/C(Cl)=C/CSC(=S)n1ccnc1 [Regulator compound (2), 3-chloro-2-butenyl 1H-imidazole-1-carbodithioate]"
–,16.6,CC(=O)Nc1ccccc1 [N-phenylacetamide]
5.1,–,"CCN(C(=S)SC/C=C(/C)Cl)c1ccccc1 [Regulator compound (6), reference compound]"
–,16.6,N-(methyl/ethyl)acetamide
5.1,–,"CCN(C(=S)SC(C(=O)OC)c1ccccc1)c1ccccc1 (stereo not shown) [Regulator compound (5), Methyl ({[ethyl-(phenyl)amino]-carbonothioyl}-sulphanyl)(phenyl) acetate, reference compound]"
5.1,–,"CCN(C(=S)SCc1ccccc1)c1ccccc1 [Regulator compound (3), Benzyl ethyl-(phenyl)dithio-carbamate, reference compound]"

Compound,pKa value e Z-H,pKa value
c1ccc2c(c1)[nH]c1ccccc12 [carbazole],–,17
